Measured values as given in PMC9969401, “Discovery of 2-(3-Benzamidopropanamido)thiazole-5-carboxylate Inhibitors of the Kinesin HSET (KIFC1) and the Development of Cellular Target Engagement Probes” (Journal of Medicinal Chemistry, 2023).

Legend:
[1] = biological target: T1, GST-tagged Eg5 motor domain (Homo sapiens, UniProt P52732); assay: ADP-Glo Eg5 assay (4.8 μM ATP); assay type: biochemical; conditions: preformed microtubules, 4.8 μM ATP (Table 4)
T1 construct: 4 nM GST-tagged Eg5 motor domain protein (Cytoskeleton, EG01); purchased Cytoskeleton EG01
T1 sequence (P52732 18-359 limits assumed): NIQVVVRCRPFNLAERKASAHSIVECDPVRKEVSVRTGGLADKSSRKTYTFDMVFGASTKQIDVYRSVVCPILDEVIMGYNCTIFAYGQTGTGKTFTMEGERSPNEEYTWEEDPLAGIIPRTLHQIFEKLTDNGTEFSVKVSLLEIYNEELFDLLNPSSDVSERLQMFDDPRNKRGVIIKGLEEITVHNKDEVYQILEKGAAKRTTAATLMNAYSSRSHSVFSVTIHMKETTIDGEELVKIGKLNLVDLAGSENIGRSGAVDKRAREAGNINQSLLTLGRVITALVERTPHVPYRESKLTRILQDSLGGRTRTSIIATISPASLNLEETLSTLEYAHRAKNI
Procedure: (§1) The HSET or Eg5 ATPase activity was measured using the ADP-Glo Kinase Assay kit (Promega, V9102). The assays were run using final concentrations of 5 nM full-length human N-terminal His-tag HSET or 4 nM GST-tagged Eg5 motor domain protein (Cytoskeleton, EG01) and an assay buffer containing 20 mM HEPES pH 6.8, 10 mM MgCl2, 0.25 mM EGTA, 0.4 mM Triton X-100, and 1 mM DTT. Preformed microtubules (Universal Biologicals Cambridge, bovine MT001-XL, or porcine MT002-XL), which were reconstituted in 15 mM PIPES pH 7, 1 mM MgCl2, and 20 μM paclitaxel, were present at a final assay concentration of 70 μg/mL. A reaction volume of 5 μL was used in Proxiplate 384 plus white assay plates (PerkinElmer, 6008280). To measure compound inhibition, 100 nL of compound dissolved in DMSO or DMSO alone was preincubated with the HSET and microtubules for 10 min before 3 μM Ultra-Pure ATP was added to start the ATPase reaction for the 3 μM ATP HSET assay. For the 500 μM ATP HSET assay, the addition of 500 μM Ultra-Pure ATP was used. For the Eg5 ATPase assay, 4.8 μM Ultra-Pure ATP was used. All reactions were incubated at 25 °C for 80 min and then stopped by the addition of 5 μL of the ADP-Glo reagent. 10 μL of Kinase Detection Reagent was then added after a further 45 min of incubation. The luminescence was read after 45 min on a PheraStar FSX plate reader (BMG Labtech). The data processing was performed using Dotmatics Studies software package. Percentage inhibition was determined based on normalization to high controls (0% inhibition, all reagents with 100 nL of DMSO alone) and low controls (100% inhibition […], without HSET). The IC50 values for each compound were determined using a four-parameter logistic curve fit of % inhibition versus concentration.

[2] = system: non-centrosome amplified DLD1 (4N) cells; assay: Multipolar spindle assay (4N cell line); assay type: cell-based, human
Text: (§2) The cellular models consisted of chromosomally stable human colon cancer DLD1 diploid (2N) and tetraploid (4N) cells, along with tetraploid centrosome -amplified (4NCA) DLD1 cells and DLD1 HSET knockout (KO) cells. DLD1 2N and 4N cells were generated and characterized as previously described.[27],[41],[42] In order to generate 4NCA cells, we used dihydro-cytochalasin B (DCB) to transiently block cytokinesis and induce tetraploidisation and centrosome amplification in DLD1 cells. Centrosome amplification in 4NCA cells is transient and therefore they were generated from 2N cells for each run of the assay.[27] The DLD1 HSET KO cells were knockout clones generated by CRISPR and validated by sequencing to have a homozygous deletion in the KIFC1 gene.
(§3) Inhibition of HSET-mediated clustering was measured using a phenotypic assay measuring the formation of multipolar metaphase spindles in DLD1 cells with (4NCA) or without (4N) centrosome amplification. 4NCA cells were generated by treating 2N DLD1 cells with 2 μΜ DCB for 24 h, washed, and released in growth media for 24 h. 4N and 4NCA DLD1 cells were plated in 96-well ibidi μ-Clear plates (IB-89626, ibidi) with a no. 1.5 polymer coverslip bottom with optimal imaging properties. To enrich the mitotic population, cells were first treated for 3.5 h with 8 μM pro-TAME (I-440-01M, R&D system), an inhibitor of APC/C that transiently arrests cells in metaphase without affecting the structure of the spindle. Following the initial arrest, cells were treated with HSET compounds in the presence of 8 μM MG-132 (S2619, SelleckChem), a proteasome inhibitor that helps to maintain the metaphase arrest, where the number of spindle poles/cell can be optimally quantified by an automated segmentation analysis.
(§4) Cells were then fixed in methanol and stained for 3 h for mitotic pole marker aurora A (1:1000 610939 mouse anti-IAK1, BD Biosciences) and phosphorylated histone H3 (1:1500 ab47297 anti-histone H3 pS10, Abcam) as a marker of mitotic cells in 1.5% FBS in PBS. Following primary antibody treatment, cells were incubated with secondary antibodies Alexa Fluor 488 goat antimouse and Alexa Fluor 555 goat antirabbit (1:1500, A11029 and A21429, respectively, Life Technologies) together with 1 μg/mL DAPI (D9542, Sigma) in 1.5% FBS in PBS. Image acquisition was performed at 10× using the GE INCELL 2200 High Content Imaging System (Cytiva) and analyzed using the InCell Investigator software. Mitotic cells were identified by high pHH3 staining and were scored as multipolar if they had more than two mitotic spindle poles. The percentage of multipolar mitoses was calculated by dividing the number of multipolar mitoses by the total of all visible mitoses in one well of a 96-well plate (n > 100 for each replicate, two replicates per concentration point).

[3] = system: centrosome-amplified (4NCA) DLD1 cells; assay: Multipolar spindle assay (4NCA cell line); assay type: cell-based, human
Text: as §2, §3, §4

[4] = biological target: T2, recombinant full-length HSET (Homo sapiens, UniProt Q9BW19); assay: ADP-Glo HSET assay (500 μM ATP); assay type: biochemical; conditions: high ATP concentration of 500 μM; single determination or mean of two
T2 construct: 5 nM full-length human N-terminal His-tag HSET; His-tag (N)
T2 sequence (Q9BW19 1-673): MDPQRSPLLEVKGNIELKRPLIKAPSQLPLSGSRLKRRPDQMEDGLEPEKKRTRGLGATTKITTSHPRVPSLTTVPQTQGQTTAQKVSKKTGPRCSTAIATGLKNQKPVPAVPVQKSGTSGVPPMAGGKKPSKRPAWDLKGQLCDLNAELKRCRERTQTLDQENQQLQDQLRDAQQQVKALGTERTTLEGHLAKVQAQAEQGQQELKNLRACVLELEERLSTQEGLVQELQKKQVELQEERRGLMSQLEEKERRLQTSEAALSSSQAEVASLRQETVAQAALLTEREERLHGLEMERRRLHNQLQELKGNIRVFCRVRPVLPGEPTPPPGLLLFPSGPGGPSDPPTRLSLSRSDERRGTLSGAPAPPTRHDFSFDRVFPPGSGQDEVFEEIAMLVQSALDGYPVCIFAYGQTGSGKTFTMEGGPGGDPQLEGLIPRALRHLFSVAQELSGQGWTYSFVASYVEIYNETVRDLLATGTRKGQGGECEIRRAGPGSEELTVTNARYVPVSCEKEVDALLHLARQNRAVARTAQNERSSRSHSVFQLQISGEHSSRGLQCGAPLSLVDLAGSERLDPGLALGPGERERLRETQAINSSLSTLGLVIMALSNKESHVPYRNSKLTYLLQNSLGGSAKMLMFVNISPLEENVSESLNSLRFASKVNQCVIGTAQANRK
Procedure: as §1

[5] = biological target: T2, recombinant full-length HSET; assay: ADP-Glo HSET assay (3 μM ATP), microtubule-stimulated ATPase; assay type: biochemical; conditions: for IC50: preformed microtubules, 3 μM ATP, read-out: HSET ADP-Glo IC50
Procedure: as §1

DLD1 HSET KO cells = assay: Click probe localization imaging in DLD1 HSET KO cells (negative control); assay type: cell-based, human; conditions: HSET nonexpressing (DLD1 HSET KO) cells
Procedure: (§5) The Cy-5 tetrazine dye selected for this experiment is not cell-permeable, thus fixation and permeabilization of cells were necessary prior to its addition. Experiments were conducted in DLD1 4N cells and, as a negative control, isogenic 2N DLD1 HSET KO cells in which HSET expression was prevented by the disruption of the HSET gene using CRISPR. Cells were treated first with proTAME for 2 h to accumulate mitotic events, followed by treatment with the TCO probe 40 for 45 min. The live cells were then fixed and permeabilized before treatment with the tetrazine-Cy5 dye and incubation to allow the IEDDA reaction to occur. Additionally, the cells were stained for the endogenous HSET protein using indirect immunofluorescence and imaged to observe the fluorescence from both the TCO probe and antibody-labeled HSET. […] A 3 μM concentration of the probe 40 gave an acceptable signal-to-noise ratio of around 2:1. Even under these optimal conditions, some residual uniform cytoplasmic Cy5 signal was observed within the cells. However, a clear Cy5 decoration of the mitotic spindle was seen, which overlapped with the signal from the antibody-probed endogenous HSET protein (Figures 2A and S6). […] We observed a 14–17-fold increase in signal in DLD1 4N cells treated with 40 relative to tetrazine-Cy5 alone. […] Comparing the intensity of click probe labeling coincident with the mitotic spindle in DLD1 4N cells to that in DLD1 HSET KO cells after both were treated with 40, we observed a twofold higher signal in the former.
(§6) Direct target engagement of active inhibitor 36 was measured by calculating its capacity to displace the TCO-containing probe 40. 4N DLD1 cells and DLD1 HSET KO cells (negative control) were plated in 96-well ibidi μ-Clear plates (IB-89626, ibidi). Cells were first treated for 2 h with 8 μM pro-TAME (I-440–01M, R&D system) to accumulate mitotic cells and were then treated with 8 μM MG-132 (S2619, SelleckChem) and 3 μM 40, alone or together with active inhibitor 36 in DMEM media with 1% FBS for 45 min. Cells were then washed three times in DMEM, with the second wash being incubated for 10 min to ensure the optimal reduction of unspecific compound binding. After an additional PBS wash, cells were then fixed in 4% PFA/PBS (15670799, Thermo Scientific) prior to incubation with 400 nM tetraszine-Cy5 (CLK-015-05, Jena Biosciences) in 1.5% FBS/PBS for 10 min at room temperature. Cells were permeabilized by the addition of 0.5% TritonX-100/PBS for 5 min before being stained overnight for Pericentrin (1:1500 ab28144 mouse anti-PCNT, Abcam) and KIFC1 (1:1500 12313S rabbit anti-KIFC1, Cell Signaling Technologies). Secondary antibodies Alexa Fluor 488 donkey antirabbit and Alexa Fluor 555 donkey antimouse (1:1500, A21206 and A31570, respectively, Life Technologies) were added together with 1 μg/mL DAPI (D9542, Sigma) in 1.5% FBS in PBS.
(§7) Plates were imaged at 40× using a Zeiss LSM980 confocal microscope with Airyscan 2. The subsequent analysis and quantification were performed using 3D image segmentation with the Arivis4D software. Mitotic cells were segmented by selecting for the highest density (integrated DAPI intensity/total volume), and the mitotic pole areas were segmented using the Pericentrin signal. The signal of the click probe (Cy5) and total KIFC1 (FITC) was measured on the mitotic pole area, and both were normalized to the control condition containing 40 probe alone. The ratio of probe per target (click probe pole integrated intensity signal/KIFC1 pole integrated intensity signal) was used to calculate the occupancy of the probe in the target protein and normalized to the control condition containing 40 probe alone (n > 100 for each replicate, two replicates per concentration point).

[6] = Kinetic aqueous solubility (KSol), HPLC-UV; assay type: physicochemical; conditions: PBS buffer pH 7.4, 100 μM solution with 1% DMSO, HPLC with UV detection
HSET in DLD1 4N cells = biological target: T3, HSET in DLD1 4N cells (Homo sapiens, UniProt Q9BW19); assay: Click probe localization target engagement imaging in DLD1 4N cells; assay type: cell-based; conditions: DLD1 4N cells treated with 40
T3 construct: overlapped with the signal from the antibody-probed endogenous HSET protein; endogenous in cells; host or cells: DLD1 4N cells
T3 sequence (Q9BW19 1-673): T2 sequence (Q9BW19 1-673)
Procedure: as §5, §6, §7

| IC50 [1] [nM] | IC50 [4] [nM] | ligand efficiency (LE) [5] | lipophilic ligand efficiency (LLE) [5] | LE ([5]; LE = −1.4Log(IC50 [M])/number of non-hydrogen atoms (Table 1)) | LLE ([5]; LLE = −Log(IC50 [M]) – cLogP (MoKa) (Table 1)) | IC50 ([5]; mean (±SD) n ≥ 3 (Table 4)) [nM] | IC50 ([5]; mean (±SD) n ≥ 3, >200 from a single determination (Table 1)) [nM] | KSol data [6] [µM] | fold increase in signal relative to tetrazine-Cy5 alone (HSET in DLD1 4N cells) | IC50 ([5]; mean (±SD) n ≥ 3 (37 n = 2, 38 single determination) (Table 3)) [nM] | SMILES | % Multipolarity above baseline @ 15 mM (4N cells) ([2]; 15 μM, 4N cells, supplementary CSV) [%] | effect on multipolar mitoses (4N), in words ([2]; 15 μM, non-centrosome amplified DLD1 (4N) cell line) | % multipolarity above baseline @ 15 μM (4N cells) ([2]; 4N DLD1 cells (Table 4)) [%] | % multipolarity above baseline @ 15 μM (4NCA cells) ([3]; 15 μM, 4NCA DLD1 cells (Table 4)) [%] | % multipolarity above baseline @ 15 μM (4NCA cells) ([3]; 15 µM, 4NCA cells, supplementary CSV) [%] | increase in mitotic spindle multipolarity (4NCA) ([3]; 15 μM, centrosome-amplified (4NCA) DLD1 cell line) [%] | fold increase in signal relative to tetrazine-Cy5 alone (DLD1 HSET KO cells) |
| --- | --- | --- | --- | --- | --- | --- | --- | --- | --- | --- | --- | --- | --- | --- | --- | --- | --- | --- |
| > 200000 | 86 | 0.34 | 5.4 | 0.34 | 5.4 | 27 | 27 | – | – | – | CCOC(=O)c1sc(NC(=O)CCNC(=O)c2cccc(-c3nnn(C)n3)c2)nc1C [Compound 18, Ethyl 4-Methyl-2-(3-(3-(2-methyl-2H-tetrazol-5-yl)benzamido)propanamido)thiazole-5-carboxylate] | 0 | no increases in multipolar mitoses | 0 | 11 | 11 | ~10 | – |
| – | – | – | – | – | – | – | – | 1.1 | 14–17 fold | 39 | CCCOC(=O)c1sc(NC(=O)C[C@H](CCCN(C)CC#CCNC(=O)O[C@@H]2CC/C=C/CCC2)NC(=O)c2cccc(-c3noc(C)n3)c2)nc1C [Compound 40, propyl 2-((S)-6-((4-(((((S,E)-Cyclooct-4-en-1-yl)oxy)carbonyl)amino)but-2-yn-1-yl)(methyl)amino)-3-(3-(5-methyl-1,2,4-oxadiazol-3-yl)benzamido)hexanamido)-4-methylthiazole-5-carboxylate] | – | – | – | – | – | – | 7–8 fold |
